Results on 1 compound are retold here after US9765075B2, “Substituted bridged urea analogs as sirtuin modulators” (GLAXOSMITHKLINE LLC, priority 2013, dated 2017).

Substitutions are numbered along the chain they refer to. Counter-ions that a name gives are not always drawn.

Test in all cases: SIRT1 inhibition assay, OAcADPr mass spectrometry
What all share (type): biochemical

In one test the target is T1, full-length hSIRT1 V224A (Homo sapiens, UniProt Q96EB6, V224A).
T1 construct: The following point mutants of full-length hSIRT1 were generated; His6 (C); made in house
T1 sequence (Q96EB6 1-747 V224A): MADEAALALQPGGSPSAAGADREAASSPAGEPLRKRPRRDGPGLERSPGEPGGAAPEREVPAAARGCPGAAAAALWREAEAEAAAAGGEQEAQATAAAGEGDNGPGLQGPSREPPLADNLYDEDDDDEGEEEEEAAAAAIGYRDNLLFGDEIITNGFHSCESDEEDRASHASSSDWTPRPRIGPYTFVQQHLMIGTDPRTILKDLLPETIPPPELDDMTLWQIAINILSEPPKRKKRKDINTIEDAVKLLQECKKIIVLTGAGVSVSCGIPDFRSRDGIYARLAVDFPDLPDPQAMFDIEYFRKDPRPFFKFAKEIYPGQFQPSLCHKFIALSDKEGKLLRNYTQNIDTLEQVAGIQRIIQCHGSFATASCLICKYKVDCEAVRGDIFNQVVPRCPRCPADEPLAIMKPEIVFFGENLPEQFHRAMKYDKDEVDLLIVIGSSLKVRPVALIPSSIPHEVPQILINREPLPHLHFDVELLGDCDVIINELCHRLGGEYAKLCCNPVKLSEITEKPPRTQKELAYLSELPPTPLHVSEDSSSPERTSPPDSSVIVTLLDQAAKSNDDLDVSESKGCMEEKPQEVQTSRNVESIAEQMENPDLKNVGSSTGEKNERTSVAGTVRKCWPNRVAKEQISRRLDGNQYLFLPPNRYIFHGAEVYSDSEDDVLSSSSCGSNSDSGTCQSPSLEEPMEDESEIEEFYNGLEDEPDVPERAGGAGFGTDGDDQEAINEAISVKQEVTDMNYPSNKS

The target of the next test is T2, full-length hSIRT1 N226A (Homo sapiens, UniProt Q96EB6, N226A).
T2 construct: The following point mutants of full-length hSIRT1 were generated; His6 (C); made in house
T2 sequence (Q96EB6 1-747 N226A): T1 sequence (Q96EB6 1-747 V224A) with A224V, N226A

In a further test the target is T3, full-length hSIRT1 E230A (Homo sapiens, UniProt Q96EB6, E230A).
T3 construct: His6 (C); made in house
T3 sequence (Q96EB6 1-747 E230A): T1 sequence (Q96EB6 1-747 V224A) with A224V, E230A

On to `CCCC[C@H](NC(=O)[C@H](CC(C)C)NC(=O)[C@H](CCCCNC(=O)C(F)(F)F)NC(=O)[C@H](CCCCN)NC(=O)[C@H](Cc1c[nH]cn1)NC(=O)[C@H](CCCNC(=N)N)NC(C)=O)C(=O)N[C@@H](Cc1ccccc1)C(N)=O` [TFA-p53 7-mer, Ac-RHK-K^TFA-L-Nle-F-NH2], for which the values for the IC50 against full-length hSIRT1 V224A, against full-length hSIRT1 N226A and at full-length hSIRT1 E230A were 860 ± 80 nM, 350 ± 40 nM and 1300 ± 400 nM, respectively.
